Measured values from ChEMBL document CHEMBL3132769, “Fragment growing to retain or alter the selectivity of anchored kinase hinge-binding fragments” (Medchemcomm, 2014).

What was measured:
[1] = target: Epidermal growth factor receptor (Homo sapiens) (UniProt P00533); experiment: Inhibition of human EGFR catalytic domain expressed in baculovirus assessed as substrate phosphorylation using fluorescence-labelled peptides as substrate at 0.06 uM after 90 mins by microfluidic peptide phosphorylation assay
[2] = target: Dual specificity tyrosine-phosphorylation-regulated kinase 1A (Rattus norvegicus) (UniProt Q63470); experiment: Inhibition of rat full length DYRK1a expressed in Escherichia coli cell assessed as substrate phosphorylation using fluorescence-labelled peptides as substrate at 0.06 uM after 90 mins by microfluidic peptide phosphorylation assay
[3] = target: RAC-alpha serine/threonine-protein kinase (Homo sapiens) (UniProt P31749); conditions: 0.06 uM
Sequence of RAC-alpha serine/threonine-protein kinase (Homo sapiens) (P31749 whole entry): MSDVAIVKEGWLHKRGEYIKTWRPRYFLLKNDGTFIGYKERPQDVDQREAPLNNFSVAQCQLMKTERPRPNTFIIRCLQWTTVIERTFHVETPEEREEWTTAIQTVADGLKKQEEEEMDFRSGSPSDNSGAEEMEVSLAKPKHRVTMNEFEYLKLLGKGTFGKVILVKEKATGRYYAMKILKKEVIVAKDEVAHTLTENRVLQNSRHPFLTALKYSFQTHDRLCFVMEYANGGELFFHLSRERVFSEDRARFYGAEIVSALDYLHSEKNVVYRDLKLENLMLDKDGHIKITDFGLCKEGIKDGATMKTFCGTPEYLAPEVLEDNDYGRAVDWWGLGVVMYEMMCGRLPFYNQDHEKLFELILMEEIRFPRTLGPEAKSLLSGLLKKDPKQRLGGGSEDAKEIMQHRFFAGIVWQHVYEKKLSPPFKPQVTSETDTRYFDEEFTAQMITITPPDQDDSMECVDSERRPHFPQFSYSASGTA
Description: Inhibition of human AKT1 catalytic domain expressed in baculovirus assessed as substrate phosphorylation using fluorescence-labelled peptides as substrate at 0.06 uM after 90 mins by microfluidic peptide phosphorylation assay

[4] = target: T1, Testis-specific serine/threonine-protein kinase 1 (Homo sapiens) (UniProt Q9BXA7); experiment: Inhibition of human full length TSSK1 expressed in baculovirus assessed as substrate phosphorylation using fluorescence-labelled peptides as substrate at 420 uM after 90 mins by microfluidic peptide phosphorylation assay
T1 sequence (whole entry): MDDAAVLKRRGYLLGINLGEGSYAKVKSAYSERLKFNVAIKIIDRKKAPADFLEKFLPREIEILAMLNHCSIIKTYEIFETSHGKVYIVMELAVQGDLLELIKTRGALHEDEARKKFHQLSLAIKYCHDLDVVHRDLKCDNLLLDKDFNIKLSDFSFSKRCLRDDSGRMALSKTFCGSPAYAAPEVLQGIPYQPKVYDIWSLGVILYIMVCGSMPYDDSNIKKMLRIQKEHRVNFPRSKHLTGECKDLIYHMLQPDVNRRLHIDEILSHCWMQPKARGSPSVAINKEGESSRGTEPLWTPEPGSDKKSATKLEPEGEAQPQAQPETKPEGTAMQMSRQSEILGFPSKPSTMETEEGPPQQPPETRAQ

[5] = target: Aurora kinase B (Homo sapiens) (UniProt Q96GD4); experiment: Inhibition of human full length AurB expressed in baculovirus assessed as substrate phosphorylation using fluorescence-labelled peptides as substrate at 0.2 uM after 90 mins by microfluidic peptide phosphorylation assay
Sequence of Aurora kinase B (Homo sapiens) (Q96GD4 whole entry, the tested form may be a part): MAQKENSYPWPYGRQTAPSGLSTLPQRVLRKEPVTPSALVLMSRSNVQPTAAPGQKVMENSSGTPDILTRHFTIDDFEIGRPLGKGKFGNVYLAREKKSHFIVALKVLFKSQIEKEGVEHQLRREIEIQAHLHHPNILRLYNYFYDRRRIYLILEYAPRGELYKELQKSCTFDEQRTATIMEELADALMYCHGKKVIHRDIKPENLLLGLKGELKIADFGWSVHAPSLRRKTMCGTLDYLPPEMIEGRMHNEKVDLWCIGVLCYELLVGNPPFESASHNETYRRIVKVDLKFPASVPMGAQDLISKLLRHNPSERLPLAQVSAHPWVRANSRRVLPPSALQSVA

[6] = target: Fibroblast growth factor receptor 4 (Homo sapiens) (UniProt P22455); experiment: Inhibition of human FGFR4 catalytic domain expressed in baculovirus assessed as substrate phosphorylation using fluorescence-labelled peptides as substrate at […] after 90 mins by microfluidic peptide phosphorylation assay
Sequence of Fibroblast growth factor receptor 4 (Homo sapiens) (P22455 22-802 limits assumed): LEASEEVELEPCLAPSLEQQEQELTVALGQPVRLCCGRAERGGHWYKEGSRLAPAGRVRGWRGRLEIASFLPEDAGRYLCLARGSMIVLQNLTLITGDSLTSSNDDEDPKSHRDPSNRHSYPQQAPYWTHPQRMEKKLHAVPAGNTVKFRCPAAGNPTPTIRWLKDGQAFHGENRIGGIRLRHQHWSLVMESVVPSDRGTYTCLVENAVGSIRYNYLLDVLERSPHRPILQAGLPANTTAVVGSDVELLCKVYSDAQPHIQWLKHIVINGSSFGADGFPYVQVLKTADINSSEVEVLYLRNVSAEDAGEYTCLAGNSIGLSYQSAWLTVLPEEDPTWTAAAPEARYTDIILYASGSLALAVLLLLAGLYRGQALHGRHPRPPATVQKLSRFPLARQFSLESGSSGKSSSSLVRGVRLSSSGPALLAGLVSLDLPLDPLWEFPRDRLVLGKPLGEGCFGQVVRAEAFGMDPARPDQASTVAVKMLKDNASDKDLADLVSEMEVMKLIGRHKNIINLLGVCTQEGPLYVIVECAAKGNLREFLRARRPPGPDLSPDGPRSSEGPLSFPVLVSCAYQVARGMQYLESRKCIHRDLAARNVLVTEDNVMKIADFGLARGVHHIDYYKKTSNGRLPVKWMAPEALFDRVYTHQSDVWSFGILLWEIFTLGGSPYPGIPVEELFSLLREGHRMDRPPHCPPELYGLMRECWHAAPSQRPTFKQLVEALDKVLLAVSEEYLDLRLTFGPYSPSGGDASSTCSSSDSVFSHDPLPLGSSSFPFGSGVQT

[7] = target: Dual specificity tyrosine-phosphorylation-regulated kinase 1A (Rattus norvegicus) (UniProt Q63470); experiment: Inhibition of rat full length DYRK1a expressed in Escherichia coli cell assessed as substrate phosphorylation using fluorescence-labelled peptides as substrate at […] after 90 mins by microfluidic peptide phosphorylation assay
[8] = target: Protein kinase C eta type (Homo sapiens) (UniProt P24723); experiment: Inhibition of human truncated PKC eta expressed in baculovirus assessed as substrate phosphorylation using fluorescence-labelled peptides as substrate at 9 uM after 90 mins by microfluidic peptide phosphorylation assay
Sequence of Protein kinase C eta type (Homo sapiens) (P24723 whole entry, the tested form may be a part): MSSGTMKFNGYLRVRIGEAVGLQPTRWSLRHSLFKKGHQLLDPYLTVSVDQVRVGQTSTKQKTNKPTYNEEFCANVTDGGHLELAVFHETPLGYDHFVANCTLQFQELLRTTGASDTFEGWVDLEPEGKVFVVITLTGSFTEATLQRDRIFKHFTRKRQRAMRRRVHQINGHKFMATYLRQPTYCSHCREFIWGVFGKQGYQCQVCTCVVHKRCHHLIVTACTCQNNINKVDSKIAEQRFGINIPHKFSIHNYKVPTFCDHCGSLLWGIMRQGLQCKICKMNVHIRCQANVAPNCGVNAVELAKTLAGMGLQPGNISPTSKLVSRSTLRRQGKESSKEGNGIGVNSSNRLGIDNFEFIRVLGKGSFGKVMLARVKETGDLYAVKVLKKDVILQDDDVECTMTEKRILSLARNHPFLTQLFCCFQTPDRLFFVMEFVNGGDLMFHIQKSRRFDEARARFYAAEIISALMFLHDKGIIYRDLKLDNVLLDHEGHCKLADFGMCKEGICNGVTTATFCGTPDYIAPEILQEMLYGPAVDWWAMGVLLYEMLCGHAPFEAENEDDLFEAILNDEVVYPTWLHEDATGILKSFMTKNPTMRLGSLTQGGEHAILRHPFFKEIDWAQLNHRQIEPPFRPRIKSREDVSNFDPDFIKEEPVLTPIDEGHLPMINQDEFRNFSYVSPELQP

[9] = target: T1, Testis-specific serine/threonine-protein kinase 1 (Homo sapiens); experiment: Inhibition of human full length TSSK1 expressed in baculovirus assessed as substrate phosphorylation using fluorescence-labelled peptides as substrate at 70 uM after 90 mins by microfluidic peptide phosphorylation assay
[10] = target: T2, Serine/threonine-protein kinase Sgk2 (Homo sapiens) (UniProt Q9HBY8); experiment: Inhibition of human full length SGK2 expressed in baculovirus assessed as substrate phosphorylation using fluorescence-labelled peptides as substrate at 70 uM after 90 mins by microfluidic peptide phosphorylation assay
T2 sequence (whole entry): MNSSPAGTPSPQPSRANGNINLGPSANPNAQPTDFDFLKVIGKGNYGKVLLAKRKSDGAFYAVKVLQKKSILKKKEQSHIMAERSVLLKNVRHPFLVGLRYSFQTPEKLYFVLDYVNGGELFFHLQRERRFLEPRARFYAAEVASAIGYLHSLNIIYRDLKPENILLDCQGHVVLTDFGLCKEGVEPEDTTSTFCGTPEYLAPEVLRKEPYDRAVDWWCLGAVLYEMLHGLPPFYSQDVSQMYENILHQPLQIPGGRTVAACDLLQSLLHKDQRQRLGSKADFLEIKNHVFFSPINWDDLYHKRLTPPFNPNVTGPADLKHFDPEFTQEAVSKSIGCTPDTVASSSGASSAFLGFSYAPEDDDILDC

[11] = target: Calcium/calmodulin-dependent protein kinase type II subunit gamma (Homo sapiens) (UniProt Q13555); experiment: Inhibition of human CAMK2 gamma catalytic domain expressed in baculovirus assessed as substrate phosphorylation using fluorescence-labelled peptides as substrate at 95 uM after 90 mins by microfluidic peptide phosphorylation assay
[12] = target: T2, Serine/threonine-protein kinase Sgk2 (Homo sapiens); experiment: Inhibition of human full length SGK2 expressed in baculovirus assessed as substrate phosphorylation using fluorescence-labelled peptides as substrate at 95 uM after 90 mins by microfluidic peptide phosphorylation assay
[13] = target: Casein kinase I isoform alpha (Homo sapiens) (UniProt P48729); experiment: Inhibition of human full length CSNK1A1 expressed in baculovirus assessed as substrate phosphorylation using fluorescence-labelled peptides as substrate at 95 uM after 90 mins by microfluidic peptide phosphorylation assay
Sequence of Casein kinase I isoform alpha (Homo sapiens) (P48729 2-337 limits assumed): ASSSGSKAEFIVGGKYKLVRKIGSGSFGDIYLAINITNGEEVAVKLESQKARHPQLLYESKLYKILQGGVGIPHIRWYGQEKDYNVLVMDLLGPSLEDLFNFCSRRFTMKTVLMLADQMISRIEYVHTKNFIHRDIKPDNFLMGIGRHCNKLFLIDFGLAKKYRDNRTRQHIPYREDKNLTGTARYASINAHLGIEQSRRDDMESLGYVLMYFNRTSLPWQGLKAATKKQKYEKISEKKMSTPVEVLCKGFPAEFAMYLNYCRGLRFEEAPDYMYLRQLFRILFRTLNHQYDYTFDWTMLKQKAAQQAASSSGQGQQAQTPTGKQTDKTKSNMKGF

[14] = target: MAP/microtubule affinity-regulating kinase 3 (Homo sapiens) (UniProt P27448); experiment: Inhibition of human full length c-TAK1 expressed in Escherichia coli cell assessed as substrate phosphorylation using fluorescence-labelled peptides as substrate at 1000 uM after 90 mins by microfluidic peptide phosphorylation assay
Sequence of MAP/microtubule affinity-regulating kinase 3 (Homo sapiens) (P27448 whole entry, looked up, the tested form may be a part): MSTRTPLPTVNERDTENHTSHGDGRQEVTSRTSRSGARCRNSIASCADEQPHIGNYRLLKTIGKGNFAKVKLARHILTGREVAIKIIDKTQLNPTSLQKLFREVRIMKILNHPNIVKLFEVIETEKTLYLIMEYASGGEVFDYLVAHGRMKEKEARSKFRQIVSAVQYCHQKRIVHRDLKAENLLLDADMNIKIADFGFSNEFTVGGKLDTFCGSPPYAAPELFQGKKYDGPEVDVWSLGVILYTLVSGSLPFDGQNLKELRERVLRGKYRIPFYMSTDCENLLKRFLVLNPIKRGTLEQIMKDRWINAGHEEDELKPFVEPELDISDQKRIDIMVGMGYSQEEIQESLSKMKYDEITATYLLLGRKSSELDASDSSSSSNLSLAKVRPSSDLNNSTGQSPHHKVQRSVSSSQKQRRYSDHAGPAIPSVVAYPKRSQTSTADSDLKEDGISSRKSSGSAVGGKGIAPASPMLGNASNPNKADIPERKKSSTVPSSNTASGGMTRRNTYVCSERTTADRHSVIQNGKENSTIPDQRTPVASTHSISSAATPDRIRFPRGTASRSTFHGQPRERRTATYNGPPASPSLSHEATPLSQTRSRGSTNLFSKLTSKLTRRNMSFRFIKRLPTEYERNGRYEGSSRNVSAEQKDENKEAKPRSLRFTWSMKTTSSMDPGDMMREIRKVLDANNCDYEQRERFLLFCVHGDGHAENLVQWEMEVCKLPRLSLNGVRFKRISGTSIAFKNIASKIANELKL

[15] = target: Fibroblast growth factor receptor 3 (Homo sapiens) (UniProt P22607); experiment: Inhibition of human FGFR3 catalytic domain expressed in baculovirus assessed as substrate phosphorylation using fluorescence-labelled peptides as substrate at 1000 uM after 90 mins by microfluidic peptide phosphorylation assay
Sequence of Fibroblast growth factor receptor 3 (Homo sapiens) (P22607 23-806 limits assumed): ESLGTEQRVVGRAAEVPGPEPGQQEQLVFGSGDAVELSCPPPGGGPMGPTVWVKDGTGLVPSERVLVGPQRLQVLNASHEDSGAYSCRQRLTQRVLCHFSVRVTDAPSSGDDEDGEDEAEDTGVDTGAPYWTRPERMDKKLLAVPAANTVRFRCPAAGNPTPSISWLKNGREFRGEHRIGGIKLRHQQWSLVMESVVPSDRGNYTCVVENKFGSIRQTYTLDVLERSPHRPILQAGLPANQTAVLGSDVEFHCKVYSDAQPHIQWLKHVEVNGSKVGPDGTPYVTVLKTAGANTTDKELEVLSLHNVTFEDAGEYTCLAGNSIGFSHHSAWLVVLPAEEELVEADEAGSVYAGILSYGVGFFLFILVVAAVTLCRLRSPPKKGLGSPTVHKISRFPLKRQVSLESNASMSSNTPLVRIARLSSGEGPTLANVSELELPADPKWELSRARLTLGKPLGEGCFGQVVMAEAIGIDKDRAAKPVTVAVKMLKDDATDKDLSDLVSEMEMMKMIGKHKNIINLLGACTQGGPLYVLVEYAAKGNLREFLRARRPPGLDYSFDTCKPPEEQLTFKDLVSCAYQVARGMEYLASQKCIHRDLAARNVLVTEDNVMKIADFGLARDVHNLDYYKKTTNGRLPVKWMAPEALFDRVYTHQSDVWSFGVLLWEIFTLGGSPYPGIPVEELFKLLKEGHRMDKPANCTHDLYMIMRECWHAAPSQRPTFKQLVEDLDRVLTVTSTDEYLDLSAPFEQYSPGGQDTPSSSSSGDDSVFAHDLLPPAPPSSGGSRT

[16] = target: Calcium/calmodulin-dependent protein kinase type II subunit beta (Homo sapiens) (UniProt Q13554); experiment: Inhibition of human CAMK2 beta catalytic domain expressed in baculovirus assessed as substrate phosphorylation using fluorescence-labelled peptides as substrate at 2 uM after 90 mins by microfluidic peptide phosphorylation assay
Sequence of Calcium/calmodulin-dependent protein kinase type II subunit beta (Homo sapiens) (Q13554 whole entry, the tested form may be a part): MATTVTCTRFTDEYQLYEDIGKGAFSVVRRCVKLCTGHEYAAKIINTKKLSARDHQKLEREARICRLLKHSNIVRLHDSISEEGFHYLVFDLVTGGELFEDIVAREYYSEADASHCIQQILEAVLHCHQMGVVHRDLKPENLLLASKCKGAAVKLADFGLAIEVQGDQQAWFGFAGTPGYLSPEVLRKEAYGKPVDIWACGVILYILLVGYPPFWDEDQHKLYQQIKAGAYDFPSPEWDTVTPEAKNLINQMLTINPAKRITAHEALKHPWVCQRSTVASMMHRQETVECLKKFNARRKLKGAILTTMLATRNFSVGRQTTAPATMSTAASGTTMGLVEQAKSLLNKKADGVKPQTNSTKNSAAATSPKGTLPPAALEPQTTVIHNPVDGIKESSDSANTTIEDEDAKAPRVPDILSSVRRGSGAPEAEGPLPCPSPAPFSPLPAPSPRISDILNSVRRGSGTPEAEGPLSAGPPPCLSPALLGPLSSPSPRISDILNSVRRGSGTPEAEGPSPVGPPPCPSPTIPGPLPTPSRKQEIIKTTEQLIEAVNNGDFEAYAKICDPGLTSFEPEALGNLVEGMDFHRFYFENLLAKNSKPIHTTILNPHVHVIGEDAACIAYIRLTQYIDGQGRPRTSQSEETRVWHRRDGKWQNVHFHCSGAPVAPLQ

`NC1(Cc2ccc(Cl)cc2)CCN(c2ncnc3[nH]ccc23)CC1` showed an inhibition [1] of 0%, an inhibition [2] of 0% and an inhibition [3] of 34%.

`c1nc(N2CCOCC2)c2nc[nH]c2n1` showed an inhibition [4] of 71%.

For `Clc1ccc(C2(c3ccc(-c4ncnc5[nH]cnc45)cc3)CCNCC2)cc1`, the inhibition [5] was 87.5%.

`COC(=O)c1cnc(Nc2cnc(C#N)cn2)cc1NCC1CCNCC1` was tested, and the inhibition [6] was 1.5% and the inhibition [7] was 1.5%.

Compound `NCC1CN(c2ncnc3[nH]c4cnccc4c23)CCO1` (stereo unspecified) has an inhibition [8] of 54.5%.

Compound `CNCc1ccc(-c2ncnc3[nH]cnc23)cc1` has an inhibition [9] of 62% and an inhibition [10] of 74%.

In the case of `NCCc1ccc(-c2ncnc3[nH]cnc23)cc1`, the inhibition [11] is reported as 30%, the inhibition [12] is reported as 50.5% and the inhibition [13] is reported as 53.5%.

Work on `c1cnc2[nH]ccc2c1` yielded an inhibition [14] of 77% and an inhibition [15] of 63.5%.

In the case of `NC1CCN(c2ncnc3[nH]ccc23)CC1`, the inhibition [16] is reported as 25.5%.
